Activity calls are given as the source filed them.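 Rule for the calls: active = inhibition of the parasite aminopeptidase above 50%; inactive = the rest.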
target: Leucine aminopeptidase (Plasmodium falciparum (isolate 3D7)) (UniProt Q8IL11); test: recombinant PfM17LAP enzyme inhibitors, late-stage follow-up, biochemical, fluorescence, powder samples (AID 492977); conditions: H-Leu-NHMec fluorogenic substrate, at 5 µM, stronger effect = higher value
Sequence (Q8IL11 whole entry, looked up): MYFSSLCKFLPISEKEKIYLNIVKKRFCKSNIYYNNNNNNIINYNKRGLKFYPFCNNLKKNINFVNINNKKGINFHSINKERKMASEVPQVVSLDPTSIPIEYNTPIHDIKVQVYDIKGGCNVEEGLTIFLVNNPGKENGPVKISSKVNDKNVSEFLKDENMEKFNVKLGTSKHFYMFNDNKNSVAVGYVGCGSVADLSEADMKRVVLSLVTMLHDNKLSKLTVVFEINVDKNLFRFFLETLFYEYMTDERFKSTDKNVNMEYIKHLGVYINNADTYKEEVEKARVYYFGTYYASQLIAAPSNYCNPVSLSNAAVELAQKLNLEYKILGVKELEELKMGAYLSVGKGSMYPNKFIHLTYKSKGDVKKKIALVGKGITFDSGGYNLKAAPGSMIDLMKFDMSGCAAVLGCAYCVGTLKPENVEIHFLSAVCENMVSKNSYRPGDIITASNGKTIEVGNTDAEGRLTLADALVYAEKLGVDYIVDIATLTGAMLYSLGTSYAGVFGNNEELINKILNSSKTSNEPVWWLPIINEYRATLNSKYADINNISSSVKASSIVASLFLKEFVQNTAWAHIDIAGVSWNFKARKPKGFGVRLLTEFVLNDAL

Compound | inhibition
COc1cc(NC(=O)CSc2nc3c(C)ccc(C)c3cc2C)c(C(=O)O)cc1OC | 93%
COC(=O)c1c(NC(=O)[C@H]2CC=CC[C@H]2C(=O)O)sc(C)c1C | 17% (inactive)
COc1ccc2nc(SCC(=O)Nc3cc(OC)c(OC)cc3C(=O)O)c(C)cc2c1 | 86%
COc1ccc(C(C)(C)C)cc1NC(=O)[C@H]1CC=CC[C@H]1C(=O)O | 26% (inactive)
CCOc1ccc(NC(=O)Nc2ccc3nccnc3c2)cc1 | 11% (inactive)
CCOC(=O)c1c(NC(=O)[C@@H]2C3CCC(O3)[C@@H]2C(=O)O)sc(C)c1-c1ccc(C)cc1 (some centres not stated) | 20% (inactive)
Cc1cc(C(=O)COC(=O)c2ccc[nH]c2=O)c(C)n1-c1ccccc1 | 23% (inactive)
CCOc1ccc(NC(=O)Nc2cccs2)cc1 | 31% (inactive)
Cc1ccc(-c2c(C)sc(NC(=O)[C@@H]3C4CCC(O4)[C@@H]3C(=O)O)c2C(=O)OC(C)C)cc1 (some centres not stated) | 19% (inactive)
CCc1cc2cc(OC)ccc2nc1SCC(=O)Nc1cc(OC)c(OC)cc1C(=O)O | 89%
CC1=C(C)C[C@@H](C(=O)O)[C@@H](C(=O)Nc2cccc([N+](=O)[O-])c2)C1 | 12% (inactive)
COc1ccc(NC(=O)CSC2=NC(=O)CC(C)=N2)cc1 | 21% (inactive)
CCOC(=O)c1c(-c2cccc(C)c2)csc1NC(=O)[C@H]1CC=CC[C@H]1C(=O)O | 19% (inactive)
COc1ccc(-c2cc(=O)[nH][nH]2)cc1 | 40% (inactive)
Cc1cc(C(=O)COC(=O)c2ccc[nH]c2=O)c(C)n1-c1ccc(F)cc1 | 19% (inactive)
CCc1ccc(NC(=O)[C@H]2CC=CC[C@H]2C(=O)O)cc1 | 27% (inactive)
COc1cc(NC(=O)CSc2nc3cc(C)ccc3cc2C)c(C(=O)O)cc1OC | 82%
O=C(Nc1cccc(Cl)c1)[C@H]1CC=CC[C@H]1C(=O)O | 13% (inactive)
O=C(O)CCCCCNC(=O)Nc1ccc2c(c1)OCCO2 | 15% (inactive)

Compound | inhibition
CCOC(=O)c1c(-c2ccc(C)cc2)csc1NC(=O)[C@H]1CC=CC[C@H]1C(=O)O | 24% (inactive)
CCc1cc2ccc(C)cc2nc1SCC(=O)Nc1cc(OC)c(OC)cc1C(=O)O | 90%
O=C(Nc1cc(Cl)ccc1Cl)[C@H]1CC=CC[C@H]1C(=O)O | 14% (inactive)
O=C(CSc1nccc(=O)[nH]1)Nc1ccc(Br)c(Cl)c1 | 60%
CCCCc1c(O)nc(SCC(=O)Nc2ccc3c(c2)CCC3)[nH]c1=O | 27% (inactive)
Cc1ccc(Nc2nnc(SC3CCOC3=O)s2)cc1 (configuration not stated) | 53%
Cc1ccc(-n2c(C)cc(C(=O)COC(=O)c3ccc[nH]c3=O)c2C)cc1C | 36% (inactive)
CCc1ccc(Nc2nnc(SC3CCOC3=O)s2)cc1 (configuration not stated) | 31% (inactive)
CC(C)c1ccc(NC(=O)[C@H]2CCCC[C@H]2C(=O)O)cc1 | 15% (inactive)
S=c1nc(-c2cccc(Cl)c2)[nH][nH]1 | 45% (inactive)
O=C(Nc1ccc(Cl)cc1)Nc1cccc(C(=O)O)c1 | 65%
CCn1c2ccccc2c2cc(NC(=O)CSc3nccc(=O)[nH]3)ccc21 | 70%
N#Cc1c(NC(=O)[C@@H]2C3C=CC(C3)[C@@H]2C(=O)O)sc2c1CCCCC2 (some centres not stated) | 25% (inactive)
Cc1ccc(-n2c(C)cc(C(=O)COC(=O)c3ccc[nH]c3=O)c2C)cc1 | 40% (inactive)
CCOC(=O)c1c(NC(=O)[C@@H]2C3C=CC(C3)[C@@H]2C(=O)O)sc2c1CCC(CC)C2 (some centres not stated) | 20% (inactive)
O=C(CSc1nc(O)cc(=O)n1-c1ccccc1)Nc1ccc2c3c(cccc13)CC2 | 20% (inactive)
O=C(O)Cc1ccc(NC(=O)Nc2ccc(Br)cc2)cc1 | 38% (inactive)
CCOc1cccc(-c2cc(=O)[nH][nH]2)c1 | 72%
COC(=O)c1c(-c2ccc(C)cc2)csc1NC(=O)[C@H]1CC=CC[C@H]1C(=O)O | 47% (inactive)

Compound | inhibition
COC(=O)c1cccc(NC(=O)CSc2nc(C)cc(=O)[nH]2)c1 | 21% (inactive)
COC(=O)c1c(-c2ccco2)csc1NC(=O)[C@H]1CC=CC[C@H]1C(=O)O | 50% (inactive)
COc1cc(NC(=O)CSc2nnc3c(C)cc4cc(C)cc(C)c4n23)c(C(=O)O)cc1OC | 72%
COc1ccc(NC(=O)CSc2nc(O)cc(=O)n2C)cc1 | 18% (inactive)
COc1ccc(-c2cc(=O)[nH][nH]2)cc1OC | 18% (inactive)
Cc1ccc(-c2cccc(NC(=O)[C@@H]3C4C=CC(C4)[C@@H]3C(=O)O)c2)o1 (some centres not stated) | 9% (inactive)
Cn1c(SCC(=O)Nc2cccc3ccccc23)nc(O)cc1=O | 12% (inactive)
COC(=O)c1c(NC(=O)[C@H]2CCCC[C@H]2C(=O)O)sc2c1CCCCC2 | 59%
COC(=O)c1c(-c2cc(C)ccc2C)csc1NC(=O)[C@@H]1CC=CC[C@@H]1C(=O)O | 58%
COc1cc(NC(=O)CSc2nc3ccccc3cc2C)c(C(=O)O)cc1OC | 86%
O=c1cc(-c2ccc(F)cc2)[nH][nH]1 | 49% (inactive)
O=c1cc(-c2ccc(Cl)c(Cl)c2)[nH][nH]1 | 2% (inactive)
C=CCn1c(SCC(=O)Nc2cccc3ccccc23)nc(O)c(CC)c1=O | 20% (inactive)
CCN(CC)c1ccc(NC(=O)CSc2nc(C)cc(=O)[nH]2)cc1 | 43% (inactive)
Cc1ccc(Nc2nnc(SCc3cc(=O)n4ccsc4n3)s2)c(C)c1 | 10% (inactive)
CCc1cc2ccccc2nc1SCC(=O)Nc1cc(OC)c(OC)cc1C(=O)O | 89%
S=c1nc(-c2ccccc2Br)[nH][nH]1 | 27% (inactive)
Cc1ccc(NC(=O)CSc2nnc(C)c(=O)[nH]2)cc1C | 17% (inactive)
O=C(CSc1nnc(Nc2ccccc2)s1)NN1C(=O)NC2(CCCCC2)C1=O | 37% (inactive)

From PubChem BioAssay AID492977 (The Scripps Research Institute Molecular Screening Center, 2010)
